In brackets after ≈: the same amount, converted by molar mass. Read-outs that look alike come from different tables or passages of the source.
What was measured:
S. aureus MRSA N315 = experiment: microbe, parasite or virus in culture; assay type: cell-based, Staphylococcus aureus
In short: (§1)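 MICs were measured by microbroth dilution against MRSA in cation-adjusted Mueller-Hinton broth and enterococci in Brain Heart Infusion broth. Viability was read with resazurin dye.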

S. aureus MRSA 12673 = experiment: microbe, parasite or virus in culture; assay type: cell-based, Staphylococcus aureus
In short: as §1

[1] = test system: S. aureus MRSA hetero-VISA 6347; experiment: microbe, parasite or virus in culture; assay type: cell-based, Staphylococcus aureus
In short: as §1

[2] = test system: bacterial strain not named; experiment: Raw data of the MIC measurement (absorbance); assay type: cell-based; conditions: concentration marked (MIC) in raw absorbance data
Method: The strains were grown in Mueller-Hinton broth (MH cation-adjusted, Becton Dickinson) or Brain Heart Infusion broth (BHI, Becton Dickinson), respectively. The cultivation was carried out in an aerobic atmosphere at 37 °C for 24 hours and, afterwards, the bacterial cultures were diluted in geometric progression with a proper broth. Next, 100 µl of each dilution was inoculated in an agar plate and incubated at 37 °C for 24 h. The next procedures included determination of Colony Forming Units (CFU)/ml and minimal inhibitory concentration (MIC) of the compounds in question. The latter procedure was carried out according to the microbroth dilution technique using 96-well plates. The MICs were evaluated by using the metabolic assay based on the resazurin dye. The assay was performed in triplicates.

[3] = test system: Enterococcus faecium 3934825; experiment: microbe, parasite or virus in culture; assay type: cell-based
In short: as §1

[4] = test system: Enterococcus faecalis 3937158; experiment: microbe, parasite or virus in culture; assay type: cell-based
In short: as §1

[5] = Staphylococcus aureus, MRSA, 24 h, microbroth dilution, 96-well, resazurin, 37 °C, 24 h, mean ± SD, at least three independent experiments in triplicates, read-out: MIC
[6] = Staphylococcus aureus, MRSA, raw MIC, first block, test a, repetition 1, read-out: MIC1a
[7] = Staphylococcus aureus, MRSA, raw MIC, first block, test a, repetition 2, read-out: MIC2a
[8] = Staphylococcus aureus, MRSA, raw MIC, first block, test a, repetition 3, read-out: MIC3a
[9] = Staphylococcus aureus, MRSA, raw MIC, first block, test b, repetition 1, read-out: MIC1b
[10] = Staphylococcus aureus, MRSA, raw MIC, first block, test b, repetition 2, read-out: MIC2b
[11] = Staphylococcus aureus, MRSA, raw MIC, first block, test b, repetition 3, read-out: MIC3b
[12] = Staphylococcus aureus, MRSA, raw MIC, test a, repetition 1, read-out: MIC1a
[13] = Staphylococcus aureus, MRSA, raw MIC, test a, repetition 2, read-out: MIC2a
[14] = Staphylococcus aureus, MRSA, raw MIC, test a, repetition 3, read-out: MIC3a
[15] = Staphylococcus aureus, MRSA, raw MIC, test b, repetition 1, read-out: MIC1b
[16] = Staphylococcus aureus, MRSA, raw MIC, test b, repetition 2, read-out: MIC2b
[17] = Staphylococcus aureus, MRSA, raw MIC, test b, repetition 3, read-out: MIC3b
[18] = microbroth dilution, 96-well, resazurin, 37 °C, 24 h, mean ± SD, at least three independent experiments in triplicates, listed as Van-HCl
[19] = same test as μM value, mean ± SD

## CN[C@H](CC(C)C)C(=O)N[C@H]1C(=O)N[C@@H](CC(N)=O)C(=O)N[C@H]2C(=O)N[C@H]3C(=O)N[C@H](C(=O)N[C@H](C(=O)O)c4cc(O)cc(O)c4-c4cc3ccc4O)[C@H](O)c3ccc(c(Cl)c3)Oc3cc2cc(c3O[C@@H]2O[C@H](CO)[C@@H](O)[C@H](O)[C@H]2O[C@H]2C[C@](C)(N)[C@H](O)[C@H](C)O2)Oc2ccc(cc2Cl)[C@H]1O [Van, vancomycin, reference compound]
S. aureus MRSA N315; [5]
  MIC: 2 µM (≈ 2.9 µg/mL)
S. aureus MRSA N315; [6]
  MIC: 2 µM (≈ 2.9 µg/mL)
S. aureus MRSA N315; [7]
  MIC: 1 µM (≈ 1.45 µg/mL)
S. aureus MRSA N315; [8]
  MIC: 2 µM (≈ 2.9 µg/mL)
S. aureus MRSA N315; [9]
  MIC: 2 µM (≈ 2.9 µg/mL)
S. aureus MRSA N315; [10]
  MIC: 2 µM (≈ 2.9 µg/mL)
S. aureus MRSA N315; [11]
  MIC: 1 µM (≈ 1.45 µg/mL)
S. aureus MRSA N315; [12]
  MIC: 2.97 µM (≈ 4.3 µg/mL)
S. aureus MRSA N315; [13]
  MIC: 1.49 µM (≈ 2.16 µg/mL)
S. aureus MRSA N315; [14]
  MIC: 2.97 µM (≈ 4.3 µg/mL)
S. aureus MRSA N315; [15]
  MIC: 2.97 µM (≈ 4.3 µg/mL)
S. aureus MRSA N315; [16]
  MIC: 2.97 µM (≈ 4.3 µg/mL)
S. aureus MRSA N315; [17]
  MIC: 1.49 µM (≈ 2.16 µg/mL)
S. aureus MRSA N315; [18]
  MIC: 2.0 ± 0.5 µM (≈ 2.9 µg/mL)
S. aureus MRSA N315; microbroth dilution, 96-well, resazurin, 37 °C, 24 h, mean ± SD, at least three independent experiments in triplicates, read-out: MIC
  MIC: 2 µM (≈ 2.9 µg/mL)
S. aureus MRSA N315; [19]
  MIC in (μg/ml): 3.0 ± 0.7 µg/mL (≈ 2.07 µM)
S. aureus MRSA 12673; [5]
  MIC: 4.1 µM (≈ 5.94 µg/mL)
S. aureus MRSA 12673; [6]
  MIC: 4.07 µM (≈ 5.9 µg/mL)
S. aureus MRSA 12673; [7]
  MIC: 2.03 µM (≈ 2.94 µg/mL)
S. aureus MRSA 12673; [8]
  MIC: 4.07 µM (≈ 5.9 µg/mL)
S. aureus MRSA 12673; [9]
  MIC: 4.07 µM (≈ 5.9 µg/mL)
S. aureus MRSA 12673; [10]
  MIC: 2.03 µM (≈ 2.94 µg/mL)
S. aureus MRSA 12673; [11]
  MIC: 4.07 µM (≈ 5.9 µg/mL)
S. aureus MRSA 12673; [12]
  MIC: 6.05 µM (≈ 8.77 µg/mL)
S. aureus MRSA 12673; [13]
  MIC: 3.03 µM (≈ 4.39 µg/mL)
S. aureus MRSA 12673; [14]
  MIC: 6.05 µM (≈ 8.77 µg/mL)
S. aureus MRSA 12673; [15]
  MIC: 6.05 µM (≈ 8.77 µg/mL)
S. aureus MRSA 12673; [16]
  MIC: 3.03 µM (≈ 4.39 µg/mL)
S. aureus MRSA 12673; [17]
  MIC: 6.05 µM (≈ 8.77 µg/mL)
S. aureus MRSA 12673; [18]
  MIC: 4.1 ± 1.1 µM (≈ 5.94 µg/mL)
S. aureus MRSA 12673; [19]
  MIC in (μg/ml): 6.1 ± 1.6 µg/mL (≈ 4.21 µM)
[1]; Staphylococcus aureus, 24 h, microbroth dilution, 96-well, resazurin, 37 °C, 24 h, mean ± SD, at least three independent experiments in triplicates, read-out: MIC
  MIC: 4.1 µM (≈ 5.94 µg/mL)
[1]; Staphylococcus aureus, raw MIC, first block, test a, repetition 1, read-out: MIC1a
  MIC: 4.07 µM (≈ 5.9 µg/mL)
[1]; Staphylococcus aureus, raw MIC, first block, test a, repetition 2, read-out: MIC2a
  MIC: 4.07 µM (≈ 5.9 µg/mL)
[1]; Staphylococcus aureus, raw MIC, first block, test a, repetition 3, read-out: MIC3a
  MIC: 4.07 µM (≈ 5.9 µg/mL)
[1]; Staphylococcus aureus, raw MIC, first block, test b, repetition 1, read-out: MIC1b
  MIC: 2.03 µM (≈ 2.94 µg/mL)
[1]; Staphylococcus aureus, raw MIC, first block, test b, repetition 2, read-out: MIC2b
  MIC: 4.07 µM (≈ 5.9 µg/mL)
[1]; Staphylococcus aureus, raw MIC, first block, test b, repetition 3, read-out: MIC3b
  MIC: 2.03 µM (≈ 2.94 µg/mL)
[1]; Staphylococcus aureus, raw MIC, test a, repetition 1, read-out: MIC1a
  MIC: 6.05 µM (≈ 8.77 µg/mL)
[1]; Staphylococcus aureus, raw MIC, test a, repetition 2, read-out: MIC2a
  MIC: 6.05 µM (≈ 8.77 µg/mL)
[1]; Staphylococcus aureus, raw MIC, test a, repetition 3, read-out: MIC3a
  MIC: 6.05 µM (≈ 8.77 µg/mL)
[1]; Staphylococcus aureus, raw MIC, test b, repetition 1, read-out: MIC1b
  MIC: 3.03 µM (≈ 4.39 µg/mL)
[1]; Staphylococcus aureus, raw MIC, test b, repetition 2, read-out: MIC2b
  MIC: 6.05 µM (≈ 8.77 µg/mL)
[1]; Staphylococcus aureus, raw MIC, test b, repetition 3, read-out: MIC3b
  MIC: 3.03 µM (≈ 4.39 µg/mL)
[1]; [18]
  MIC: 4.1 ± 1.1 µM (≈ 5.94 µg/mL)
[1]; [19]
  MIC in (μg/ml): 6.1 ± 1.6 µg/mL (≈ 4.21 µM)
[2]
  MIC: 3.13 µM (≈ 4.54 µg/mL)
[3]; Enterococcus faecium, 3934825, 24 h, microbroth dilution, 96-well, resazurin, 37 °C, 24 h, mean ± SD, at least three independent experiments in triplicates, read-out: MIC
  MIC: 25 µM (≈ 36.2 µg/mL)
[3]; Enterococcus faecium, 3934825, raw MIC, first block, test a, repetition 1, read-out: MIC1a
  MIC: 25 µM (≈ 36.2 µg/mL)
[3]; Enterococcus faecium, 3934825, raw MIC, first block, test a, repetition 2, read-out: MIC2a
  MIC: 25 µM (≈ 36.2 µg/mL)
[3]; Enterococcus faecium, 3934825, raw MIC, first block, test a, repetition 3, read-out: MIC3a
  MIC: 12.5 µM (≈ 18.1 µg/mL)
[3]; Enterococcus faecium, 3934825, raw MIC, first block, test b, repetition 1, read-out: MIC1b
  MIC: 12.5 µM (≈ 18.1 µg/mL)
[3]; Enterococcus faecium, 3934825, raw MIC, first block, test b, repetition 2, read-out: MIC2b
  MIC: 25 µM (≈ 36.2 µg/mL)
[3]; Enterococcus faecium, 3934825, raw MIC, first block, test b, repetition 3, read-out: MIC3b
  MIC: 25 µM (≈ 36.2 µg/mL)
[3]; Enterococcus faecium, 3934825, raw MIC, test a, repetition 1, read-out: MIC1a
  MIC: 37.1 µM (≈ 53.8 µg/mL)
[3]; Enterococcus faecium, 3934825, raw MIC, test a, repetition 2, read-out: MIC2a
  MIC: 37.1 µM (≈ 53.8 µg/mL)
[3]; Enterococcus faecium, 3934825, raw MIC, test a, repetition 3, read-out: MIC3a
  MIC: 37.1 µM (≈ 53.8 µg/mL)
[3]; Enterococcus faecium, 3934825, raw MIC, test b, repetition 1, read-out: MIC1b
  MIC: 18.6 µM (≈ 26.9 µg/mL)
[3]; Enterococcus faecium, 3934825, raw MIC, test b, repetition 2, read-out: MIC2b
  MIC: 37.1 µM (≈ 53.8 µg/mL)
[3]; Enterococcus faecium, 3934825, raw MIC, test b, repetition 3, read-out: MIC3b
  MIC: 37.1 µM (≈ 53.8 µg/mL)
[3]; [18]
  MIC: 25.0 ± 6.5 µM (≈ 36.2 µg/mL)
[3]; [19]
  MIC in (μg/ml): 37.1 ± 7.6 µg/mL (≈ 25.6 µM)
[4]; Enterococcus faecalis, 3937158, 24 h, microbroth dilution, 96-well, resazurin, 37 °C, 24 h, mean ± SD, at least three independent experiments in triplicates, read-out: MIC
  MIC: 25 µM (≈ 36.2 µg/mL)
[4]; Enterococcus faecalis, 3937158, raw MIC, first block, test a, repetition 1, read-out: MIC1a
  MIC: 25 µM (≈ 36.2 µg/mL)
[4]; Enterococcus faecalis, 3937158, raw MIC, first block, test a, repetition 2, read-out: MIC2a
  MIC: 25 µM (≈ 36.2 µg/mL)
[4]; Enterococcus faecalis, 3937158, raw MIC, first block, test a, repetition 3, read-out: MIC3a
  MIC: 12.5 µM (≈ 18.1 µg/mL)
[4]; Enterococcus faecalis, 3937158, raw MIC, first block, test b, repetition 1, read-out: MIC1b
  MIC: 25 µM (≈ 36.2 µg/mL)
[4]; Enterococcus faecalis, 3937158, raw MIC, first block, test b, repetition 2, read-out: MIC2b
  MIC: 25 µM (≈ 36.2 µg/mL)
[4]; Enterococcus faecalis, 3937158, raw MIC, first block, test b, repetition 3, read-out: MIC3b
  MIC: 12.5 µM (≈ 18.1 µg/mL)
[4]; Enterococcus faecalis, 3937158, raw MIC, test a, repetition 1, read-out: MIC1a
  MIC: 37.1 µM (≈ 53.8 µg/mL)
[4]; Enterococcus faecalis, 3937158, raw MIC, test a, repetition 2, read-out: MIC2a
  MIC: 37.1 µM (≈ 53.8 µg/mL)
[4]; Enterococcus faecalis, 3937158, raw MIC, test a, repetition 3, read-out: MIC3a
  MIC: 18.6 µM (≈ 26.9 µg/mL)
[4]; Enterococcus faecalis, 3937158, raw MIC, test b, repetition 1, read-out: MIC1b
  MIC: 37.1 µM (≈ 53.8 µg/mL)
[4]; Enterococcus faecalis, 3937158, raw MIC, test b, repetition 2, read-out: MIC2b
  MIC: 37.1 µM (≈ 53.8 µg/mL)
[4]; Enterococcus faecalis, 3937158, raw MIC, test b, repetition 3, read-out: MIC3b
  MIC: 18.6 µM (≈ 26.9 µg/mL)
[4]; [18]
  MIC: 25.0 ± 6.5 µM (≈ 36.2 µg/mL)
[4]; [19]
  MIC in (μg/ml): 37.1 ± 9.6 µg/mL (≈ 25.6 µM)

Reference: publication PMC6397271 (Scientific Reports, 2019)
